This is an account of results in the OligoGym collection.

Common to all, as to conditions: ASO
Data set [1] has as its target BIRC5.
The target in data set [2] is RELA.
Data set [3] deals with MAP2K2.
The target of data set [4] is CTNNB1.

These antisense oligonucleotides have a phosphorothioate backbone; sugars and methylation of C are not fully specified. Where only a bound is given, the exact number is not on record here.
Note: test concentration or dose not given here.

AAAAGGAGTATCTGCCAG had a remaining target (mRNA or protein) (fraction of control) in data set [1] of 0.61. Same read-out and setting: as for AAAGAGAGAGAGAGAGAG, the figure is 0.82.

AAAGGAGCCTCGGGCCTC: in data set [2], the remaining target (mRNA or protein) (fraction of control) worked out at 0.37.

The sequence AACACACCGTTGGGCAGC came in with a remaining target (mRNA or protein) (fraction of control) in data set [3] of 0.13. Sequence AAGCAGCCACTGTTACCA yielded a remaining target (mRNA or protein) (fraction of control) in data set [1] of 0.36. In data set [1], ACAGGAAGGCTGGTGGCA showed a remaining target (mRNA or protein) (fraction of control) of 0.3.

In turn, ACAGGCAGAAGCACCTCT registered a remaining target (mRNA or protein) (fraction of control) in data set [1] not below 1.

As to ACAGTTGAAACATCTAAT, in data set [1], the remaining target (mRNA or protein) (fraction of control) is not below 1.

ACCTGGAAGCAGAGCCGC displayed a remaining target (mRNA or protein) (fraction of control) in data set [2] of 0.31.

For the sequence ACGCAGGGAGCCCGGCCA, the remaining target (mRNA or protein) (fraction of control) in data set [3] stood at 0.29. In data set [1], ACTGTGGAAGGCTCTGCC came in with a remaining target (mRNA or protein) (fraction of control) not below 1. AGAGCCGCACAGCATTCA yielded a remaining target (mRNA or protein) (fraction of control) in data set [2] of 0.46.

AGCCTGGTCCCGTGAAAT had a remaining target (mRNA or protein) (fraction of control) in data set [2] of 0.5. For the sequence AGCGTCGCCCGTCCCCAG, the remaining target (mRNA or protein) (fraction of control) in data set [3] stood at 0.15. Turning to AGCTGAGCTGCGGGAAGG, the remaining target (mRNA or protein) (fraction of control) in data set [2] amounted to 0.86.

For AGCTTCCTGGCCATGATG, the remaining target (mRNA or protein) (fraction of control) in data set [3] is 0.36. In turn, AGCTTGAGTAGCCATTGTCC gave a remaining target (mRNA or protein) (fraction of control) in data set [4] of 0.34. For the sequence AGGACTGTGACAGCCTCA, in data set [1], the remaining target (mRNA or protein) (fraction of control) came to 0.38.

For the sequence AGGCTAGGGTTTGCTAAATT, in data set [4], the remaining target (mRNA or protein) (fraction of control) worked out at 0.47. In data set [1], AGGGACACTGCCTTCTTC gave a remaining target (mRNA or protein) (fraction of control) of 0.57. In data set [2], AGGTATGCCCTGGTTCAG came in with a remaining target (mRNA or protein) (fraction of control) of 0.61. On to AGGTCCCAGCGGTACAACGA, for which the remaining target (mRNA or protein) (fraction of control) in data set [4] came to 0.21.

In the case of AGGTGCATGATTTGCGGGAC, the remaining target (mRNA or protein) (fraction of control) in data set [4] stood at 0.62.

In data set [4], AGTAGCCATTGTCCACGCTG displayed a remaining target (mRNA or protein) (fraction of control) of 0.37. ATCTCAAGGTGGATCAGC had a remaining target (mRNA or protein) (fraction of control) in data set [3] of 0.71. In the case of ATGACAGGGAGGAGGGCG, the remaining target (mRNA or protein) (fraction of control) in data set [1] is not below 1. The sequence ATGAGGAAGGACAGGCGG yielded a remaining target (mRNA or protein) (fraction of control) in data set [2] not below 1. In data set [2], ATGCGTCGAGGTGGAGGC registered a remaining target (mRNA or protein) (fraction of control) of 0.6. The sequence ATGGAGGAGAAGTCTTCA returned a remaining target (mRNA or protein) (fraction of control) in data set [2] not below 1. ATGGGTCCCGCACTGTCA showed a remaining target (mRNA or protein) (fraction of control) in data set [2] of 0.38. Turning to ATTCTCTAATCACACACA, the remaining target (mRNA or protein) (fraction of control) in data set [1] amounted to 0.74. CAAAACAAGGTTCCAAATAA displayed a remaining target (mRNA or protein) (fraction of control) in data set [4] of 0.56. Consider CAAAGATGGGATGAGGAA, for which the remaining target (mRNA or protein) (fraction of control) in data set [2] is not below 1.

For CAAATCAGCTTGAGTAGCCA, in data set [4], the remaining target (mRNA or protein) (fraction of control) was determined as 0.49. As to CAAGTCTGGCTCGTTCTC, in data set [1], the remaining target (mRNA or protein) (fraction of control) was not below 1. The sequence CAATGTCCTCTTTCTGCA gave a remaining target (mRNA or protein) (fraction of control) in data set [2] of 0.78.

CAGGTCCCGCTTCTTCAC had a remaining target (mRNA or protein) (fraction of control) in data set [2] of 0.33.

CATTGTCCACGCTGGATTTT registered a remaining target (mRNA or protein) (fraction of control) in data set [4] of 0.72.

CCACGCGAACAAAGCTGT yielded a remaining target (mRNA or protein) (fraction of control) in data set [1] of 0.38. As to CCCATAGGAAACTCAGCTTG, in data set [4], the remaining target (mRNA or protein) (fraction of control) came out at 0.29. In the case of CCCCTCGCTCTCCGCTCCCG, the remaining target (mRNA or protein) (fraction of control) in data set [4] was determined as 0.07. In data set [1], CCGTGTGGAGAACGTGAC yielded a remaining target (mRNA or protein) (fraction of control) of 0.78. In the case of CCTCTCAGCAACTCTACAGG, the remaining target (mRNA or protein) (fraction of control) in data set [4] was found to be 0.24.

Take CCTCTGATAACAATTCGGTT: in data set [4], the remaining target (mRNA or protein) (fraction of control) worked out at 0.52.

The sequence CCTCTGCCAACGGGTCCC came in with a remaining target (mRNA or protein) (fraction of control) in data set [1] of 0.96. CCTGGAAGTGGTGCAGCC had a remaining target (mRNA or protein) (fraction of control) in data set [1] of 0.84. CCTGGTCCTGTGTAGCCA yielded a remaining target (mRNA or protein) (fraction of control) in data set [2] of 0.78. For the sequence CGACCTGCGGTGGCGGCTCG, in data set [4], the remaining target (mRNA or protein) (fraction of control) worked out at 0.36. In the case of CGATGGCACGGCGCACTT, the remaining target (mRNA or protein) (fraction of control) in data set [1] was determined as 0.28.

As for CGTAGTCCCCACGCTGCT, the remaining target (mRNA or protein) (fraction of control) in data set [2] turned out to be 0.29.

For CTAAAGGATGATTTACAGGT, in data set [4], the remaining target (mRNA or protein) (fraction of control) is 0.54. CTCAATGATCTCCACATA returned a remaining target (mRNA or protein) (fraction of control) in data set [2] not below 1. On the same count and under the same terms, with CTCATAGAAGCCATCCCG the figure was 0.69; with CTGCCGGGAAGATGAGGG, 0.84. For the sequence CTGGTCAGCTCAACTGAAAG, in data set [4], the remaining target (mRNA or protein) (fraction of control) was found to be 0.41.

On to CTGTCAGAGGAGCTGTGGCT, for which, in data set [4], the remaining target (mRNA or protein) (fraction of control) worked out at 0.64.

CTGTCTCCTCATCCACCT came in with a remaining target (mRNA or protein) (fraction of control) in data set [1] of 0.59. For CTTGAGTAGCCATTGTCCAC, in data set [4], the remaining target (mRNA or protein) (fraction of control) is not below 1.

For the sequence CTTTCAAGACAAAACAGG, the remaining target (mRNA or protein) (fraction of control) in data set [1] was not below 1.
